How the values were obtained:
Assay in all cases: relative viability (nuclei count vs DMSO), 5 days (fraction); higher = more cells survive
[1] = system: A-427
In short: (§1)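 Lung cancer cell lines were pin-tool dosed in 1536-well plates on the day after seeding, with either a lone drug or a fixed anchor-drug dose plus five library-drug doses (not always all listed) in √10 steps. Nuclei were counted on 4× images after 5 days. Relative viability is the ratio of treated-well to vehicle-well nuclei counts, with each value a median of duplicate plates.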

[2] = system: NCI-H1915
In short: as §1

[3] = system: 201T
In short: as §1

[4] = system: NCI-H596
In short: as §1

[5] = system: NCI-H1793
In short: as §1

[6] = system: LXF-289
In short: as §1

[7] = system: EMC-BAC-2
In short: as §1

[8] = system: HCC-827
In short: as §1

[9] = system: BEN
In short: as §1

[10] = system: NCI-H2126
In short: as §1

[11] = system: EPLC-272H
In short: as §1

[12] = system: NCI-H358
In short: as §1

[13] = system: COR-L23
In short: as §1

[14] = system: EKVX
In short: as §1

[15] = system: NCI-H460
In short: as §1

[16] = system: LCLC-103H
In short: as §1

[17] = system: LK-2
In short: as §1

[18] = system: NCI-H1650
In short: as §1

[19] = system: NCI-H2087
In short: as §1

[20] = system: NCI-H1651
In short: as §1

[21] = system: SW 1573
In short: as §1

[22] = system: NCI-H2347
In short: as §1

[23] = system: HCC-44
In short: as §1

O=C(O)CCCCC(CCSCc1ccccc1)SCc1ccccc1 (centres undefined) [CPI-613] + Cc1cc(Nc2cc(N3CCN(C)CC3)nc(Sc3ccc(NC(=O)C4CC4)cc3)n2)n[nH]1 [Tozasertib] (partner 0.1 µM)
relative viability ([1]; first compound 5 µM): 0.204
relative viability ([1]; first compound 15.81 µM): 0.193
relative viability ([1]; first compound 50 µM): 0.203
relative viability ([1]; first compound 158.11 µM): 0.124
relative viability ([1]; first compound 500 µM): 0.0991
relative viability ([2]; first compound 5 µM): 0.44
relative viability ([2]; first compound 15.81 µM): 0.4
relative viability ([2]; first compound 50 µM): 0.322
relative viability ([2]; first compound 158.11 µM): 0.241
relative viability ([2]; first compound 500 µM): 0.111
relative viability ([3]; first compound 5 µM): 0.913
relative viability ([3]; first compound 15.81 µM): 0.846
relative viability ([3]; first compound 50 µM): 0.8
relative viability ([3]; first compound 158.11 µM): 0.443
relative viability ([3]; first compound 500 µM): 0.209
relative viability ([4]; first compound 5 µM): 1.08
relative viability ([4]; first compound 15.81 µM): 0.923
relative viability ([4]; first compound 50 µM): 0.966
relative viability ([4]; first compound 158.11 µM): 0.595
relative viability ([4]; first compound 500 µM): 0.0638
relative viability ([5]; first compound 5 µM): 0.297
relative viability ([5]; first compound 15.81 µM): 0.281
relative viability ([5]; first compound 50 µM): 0.308
relative viability ([5]; first compound 158.11 µM): 0.149
relative viability ([5]; first compound 500 µM): 0.0274
relative viability ([6]; first compound 5 µM): 0.178
relative viability ([6]; first compound 15.81 µM): 0.142
relative viability ([6]; first compound 50 µM): 0.176
relative viability ([6]; first compound 158.11 µM): 0.0521
relative viability ([6]; first compound 500 µM): 0.0406
relative viability ([7]; first compound 5 µM): 0.333
relative viability ([7]; first compound 15.81 µM): 0.287
relative viability ([7]; first compound 50 µM): 0.284
relative viability ([7]; first compound 158.11 µM): 0.124
relative viability ([7]; first compound 500 µM): 0.0704
relative viability ([8]; first compound 5 µM): 0.451
relative viability ([8]; first compound 15.81 µM): 0.388
relative viability ([8]; first compound 50 µM): 0.409
relative viability ([8]; first compound 158.11 µM): 0.375
relative viability ([8]; first compound 500 µM): 0.292
relative viability ([9]; first compound 5 µM): 0.532
relative viability ([9]; first compound 15.81 µM): 0.47
relative viability ([9]; first compound 50 µM): 0.495
relative viability ([9]; first compound 158.11 µM): 0.535
relative viability ([9]; first compound 500 µM): 0.408
relative viability ([10]; first compound 5 µM): 0.775
relative viability ([10]; first compound 15.81 µM): 0.778
relative viability ([10]; first compound 50 µM): 0.817
relative viability ([10]; first compound 158.11 µM): 0.281
relative viability ([10]; first compound 500 µM): 0.0758
relative viability ([11]; first compound 5 µM): 0.285
relative viability ([11]; first compound 15.81 µM): 0.279
relative viability ([11]; first compound 50 µM): 0.242
relative viability ([11]; first compound 158.11 µM): 0.0813
relative viability ([11]; first compound 500 µM): 0.0387
relative viability ([12]; first compound 15.81 µM): 0.113
relative viability ([12]; first compound 50 µM): 0.0981
relative viability ([12]; first compound 158.11 µM): 0.0576
relative viability ([12]; first compound 500 µM): 0.0347
relative viability ([13]; first compound 5 µM): 0.208
relative viability ([13]; first compound 15.81 µM): 0.145
relative viability ([13]; first compound 50 µM): 0.192
relative viability ([13]; first compound 158.11 µM): 0.11
relative viability ([13]; first compound 500 µM): 0.0434
relative viability ([14]; first compound 5 µM): 0.384
relative viability ([14]; first compound 15.81 µM): 0.401
relative viability ([14]; first compound 50 µM): 0.366
relative viability ([14]; first compound 158.11 µM): 0.368
relative viability ([14]; first compound 500 µM): 0.41
relative viability ([15]; first compound 5 µM): 0.497
relative viability ([15]; first compound 15.81 µM): 0.28
relative viability ([15]; first compound 50 µM): 0.457
relative viability ([15]; first compound 158.11 µM): 0.371
relative viability ([15]; first compound 500 µM): 0.418
relative viability ([16]; first compound 5 µM): 0.441
relative viability ([16]; first compound 15.81 µM): 0.389
relative viability ([16]; first compound 50 µM): 0.47
relative viability ([16]; first compound 158.11 µM): 0.387
relative viability ([16]; first compound 500 µM): 0.424
relative viability ([17]; first compound 5 µM): 0.173
relative viability ([17]; first compound 15.81 µM): 0.162
relative viability ([17]; first compound 50 µM): 0.189
relative viability ([17]; first compound 158.11 µM): 0.181
relative viability ([17]; first compound 500 µM): 0.139
relative viability ([18]; first compound 5 µM): 0.441
relative viability ([18]; first compound 15.81 µM): 0.321
relative viability ([18]; first compound 50 µM): 0.417
relative viability ([18]; first compound 158.11 µM): 0.0645
relative viability ([18]; first compound 500 µM): 0.0151
relative viability ([19]; first compound 5 µM): 0.316
relative viability ([19]; first compound 15.81 µM): 0.256
relative viability ([19]; first compound 50 µM): 0.21
relative viability ([19]; first compound 158.11 µM): 0.0949
relative viability ([19]; first compound 500 µM): 0.0489
relative viability ([20]; first compound 5 µM): 0.705
relative viability ([20]; first compound 15.81 µM): 0.588
relative viability ([20]; first compound 50 µM): 0.77
relative viability ([20]; first compound 158.11 µM): 0.275
relative viability ([20]; first compound 500 µM): 0.109
relative viability ([21]; first compound 5 µM): 0.232
relative viability ([21]; first compound 15.81 µM): 0.196
relative viability ([21]; first compound 50 µM): 0.15
relative viability ([21]; first compound 158.11 µM): 0.103
relative viability ([21]; first compound 500 µM): 0.0651
relative viability ([22]; first compound 5 µM): 0.526
relative viability ([22]; first compound 15.81 µM): 0.561
relative viability ([22]; first compound 50 µM): 0.566
relative viability ([22]; first compound 158.11 µM): 0.552
relative viability ([22]; first compound 500 µM): 0.524
relative viability ([23]; first compound 5 µM): 0.936
relative viability ([23]; first compound 15.81 µM): 0.845
relative viability ([23]; first compound 50 µM): 0.969
relative viability ([23]; first compound 158.11 µM): 0.322
relative viability ([23]; first compound 500 µM): 0.0777

Source: the supplement of paper PMC10307832
